Measurements taken from ChEMBL document CHEMBL2073885, “Azelastine and flezelastine as reversing agents of multidrug resistance: pharmacological and molecular studies” (Biochem Pharmacol, 1995).

Assays:
Format in all cases: functional, cell-based
[1] = biological target: T1, ATP-dependent translocase ABCB1 (Rattus norvegicus, UniProt P43245); test: TP_TRANSPORTER: increase in Doxorubicin intracellular accumulation (Doxorubicin: 17.2 uM, Azelastine: 10 uM) in C6 1V cells
[2] = biological target: Multidrug resistance protein 1a (Rattus norvegicus) (UniProt Q6PSM0); test: TP_TRANSPORTER: increase in Doxorubicin intracellular accumulation (Doxorubicin: 17.2 uM, Azelastine: 30 uM) in C6 0.5 cells
[3] = biological target: Multidrug resistance protein 1a (Rattus norvegicus) (UniProt Q6PSM0); test: TP_TRANSPORTER: increase in Doxorubicin intracellular accumulation (Doxorubicin: 17.2 uM, Flezelastine: 10 uM) in C6 0.5 cells
[4] = biological target: T1, ATP-dependent translocase ABCB1; test: TP_TRANSPORTER: increase in Doxorubicin intracellular accumulation (Doxorubicin: 17.2 uM, Flezelastine: 3 uM) in C6 1V cells

T1 sequence (P43245 whole entry): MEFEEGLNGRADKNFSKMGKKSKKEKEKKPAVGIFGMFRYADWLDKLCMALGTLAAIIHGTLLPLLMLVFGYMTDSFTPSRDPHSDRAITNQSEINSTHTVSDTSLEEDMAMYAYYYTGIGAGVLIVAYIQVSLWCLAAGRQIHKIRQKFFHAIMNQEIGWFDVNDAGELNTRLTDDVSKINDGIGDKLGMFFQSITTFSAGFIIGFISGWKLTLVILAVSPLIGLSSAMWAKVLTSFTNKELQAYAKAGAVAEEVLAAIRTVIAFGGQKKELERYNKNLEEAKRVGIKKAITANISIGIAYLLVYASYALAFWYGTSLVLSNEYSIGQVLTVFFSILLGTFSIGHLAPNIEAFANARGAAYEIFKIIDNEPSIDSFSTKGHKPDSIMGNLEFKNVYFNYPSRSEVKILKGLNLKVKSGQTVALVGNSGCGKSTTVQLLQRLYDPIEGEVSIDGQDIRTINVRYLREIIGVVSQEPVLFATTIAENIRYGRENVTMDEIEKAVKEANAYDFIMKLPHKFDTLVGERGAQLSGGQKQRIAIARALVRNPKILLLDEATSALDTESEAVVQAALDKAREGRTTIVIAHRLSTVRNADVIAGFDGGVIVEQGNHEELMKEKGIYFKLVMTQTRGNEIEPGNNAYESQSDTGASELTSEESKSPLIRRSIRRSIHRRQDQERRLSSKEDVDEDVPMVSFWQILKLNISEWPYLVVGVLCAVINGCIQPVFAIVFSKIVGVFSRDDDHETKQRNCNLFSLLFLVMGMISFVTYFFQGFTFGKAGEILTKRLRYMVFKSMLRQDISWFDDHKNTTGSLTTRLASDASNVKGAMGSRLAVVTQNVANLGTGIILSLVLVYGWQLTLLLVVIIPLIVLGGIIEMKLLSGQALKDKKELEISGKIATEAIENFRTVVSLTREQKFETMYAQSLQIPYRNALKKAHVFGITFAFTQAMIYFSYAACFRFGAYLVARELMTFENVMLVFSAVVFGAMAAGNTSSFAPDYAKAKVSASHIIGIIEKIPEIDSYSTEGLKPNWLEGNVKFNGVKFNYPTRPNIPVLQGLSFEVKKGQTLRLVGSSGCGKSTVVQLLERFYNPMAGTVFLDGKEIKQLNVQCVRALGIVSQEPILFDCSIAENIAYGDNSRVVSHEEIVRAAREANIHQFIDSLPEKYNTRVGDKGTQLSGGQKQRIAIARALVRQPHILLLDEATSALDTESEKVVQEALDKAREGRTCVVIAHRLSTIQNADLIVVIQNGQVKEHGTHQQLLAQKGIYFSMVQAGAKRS
Chain of Multidrug resistance protein 1a (Rattus norvegicus) (Q6PSM0 as listed by the source): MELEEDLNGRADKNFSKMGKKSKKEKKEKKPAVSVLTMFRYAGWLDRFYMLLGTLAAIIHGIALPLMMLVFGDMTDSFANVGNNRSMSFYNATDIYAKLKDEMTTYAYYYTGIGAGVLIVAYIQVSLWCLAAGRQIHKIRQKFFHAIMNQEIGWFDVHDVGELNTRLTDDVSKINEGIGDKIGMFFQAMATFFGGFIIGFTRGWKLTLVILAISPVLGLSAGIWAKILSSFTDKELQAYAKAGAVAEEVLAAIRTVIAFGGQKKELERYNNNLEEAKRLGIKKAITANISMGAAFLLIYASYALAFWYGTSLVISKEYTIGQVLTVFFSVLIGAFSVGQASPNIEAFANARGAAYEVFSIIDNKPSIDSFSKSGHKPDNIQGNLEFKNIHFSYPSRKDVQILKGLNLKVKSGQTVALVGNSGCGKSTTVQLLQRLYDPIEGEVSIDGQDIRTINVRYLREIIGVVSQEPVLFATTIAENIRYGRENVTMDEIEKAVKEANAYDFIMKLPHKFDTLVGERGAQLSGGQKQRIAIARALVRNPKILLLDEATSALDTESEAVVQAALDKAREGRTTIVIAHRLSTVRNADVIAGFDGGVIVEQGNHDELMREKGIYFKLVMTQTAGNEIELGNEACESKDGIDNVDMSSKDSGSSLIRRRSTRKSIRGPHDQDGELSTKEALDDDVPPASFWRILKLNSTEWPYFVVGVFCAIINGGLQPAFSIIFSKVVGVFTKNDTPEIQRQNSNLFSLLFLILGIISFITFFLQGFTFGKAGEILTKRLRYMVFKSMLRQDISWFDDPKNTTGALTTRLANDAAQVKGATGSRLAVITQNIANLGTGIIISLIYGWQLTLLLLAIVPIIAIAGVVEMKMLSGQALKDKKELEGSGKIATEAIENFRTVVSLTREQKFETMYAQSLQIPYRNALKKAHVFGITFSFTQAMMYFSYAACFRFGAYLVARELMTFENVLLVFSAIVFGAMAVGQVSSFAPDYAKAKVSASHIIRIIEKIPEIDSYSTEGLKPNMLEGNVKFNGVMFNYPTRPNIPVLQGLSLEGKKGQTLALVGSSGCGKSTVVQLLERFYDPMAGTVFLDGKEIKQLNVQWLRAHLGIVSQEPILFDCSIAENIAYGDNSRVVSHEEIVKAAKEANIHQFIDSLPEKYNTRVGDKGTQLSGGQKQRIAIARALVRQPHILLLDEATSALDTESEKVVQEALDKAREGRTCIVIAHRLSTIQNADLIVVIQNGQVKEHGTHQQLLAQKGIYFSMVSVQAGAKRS

Activity [1]	Activity [2]	Activity [3]	Activity [4]	SMILES
inhibitor [+]	inhibitor [+]	–	–	CN1CCCC(n2nc(Cc3ccc(Cl)cc3)c3ccccc3c2=O)CC1 (centres undefined) [AZELASTINE]
–	–	inhibitor [+]	inhibitor [+]	O=c1c2ccccc2c(Cc2ccc(F)cc2)nn1C1CCCN(CCc2ccccc2)CC1 (centres undefined) [FLEZELASTINE]
